# ChEMBL document CHEMBL1136039, “Synthesis and SAR of novel imidazoquinoxaline-based Lck inhibitors: improvement of cell potency” (Bioorg Med Chem Lett, 2002)
# Tested on: PBL
# Assay: cells
# Conditions: Homo sapiens, Blood
# Description: 50% inhibition of T-cell proliferation induced by anti-CD3/anti-CD28 co-stimulation in human peripheral blood leukocytes (PBLs).
row,Compound,IC50
1,COc1cc2c(cc1NCCN(C)C)nc(Nc1c(C)cccc1Cl)c1cnc(C)n12,130 nM
2,COc1cccc2nc(Nc3c(C)cccc3Cl)c3cncn3c12,2300 nM
3,COc1cc2c(cc1OCCN1CCOCC1)nc(Nc1c(C)cccc1Cl)c1cncn12,470 nM
4,CCNc1ccc2nc(Nc3c(C)cccc3Cl)c3cncn3c2c1,2200 nM
5,Cc1cccc(Cl)c1Nc1nc2ccc(NCCN3CCOCC3)cc2n2cncc12,1300 nM
6,Cc1cccc(Cl)c1Nc1nc2cc(N3CCNCC3)ccc2n2cncc12,1000 nM
7,CCN1CCN(c2ccc3nc(Nc4c(C)cccc4Cl)c4cncn4c3c2)CC1,270 nM
8,Cc1cccc(Cl)c1Nc1nc2cc(N3CCN(C)CC3)ccc2n2cncc12,720 nM
9,COc1cc2c(cc1NCCN(C)C)nc(Nc1c(C)cccc1Cl)c1cncn12,190 nM
10,CCN(CC)c1ccc2nc(Nc3c(C)cccc3Cl)c3cncn3c2c1,2600 nM
11,Cc1cccc(Cl)c1Nc1nc2ccc(N3CCN(C)CC3)cc2n2cncc12,240 nM
12,Cc1cccc(Cl)c1Nc1nc2ccc(N3CC(C)NC(C)C3)cc2n2cncc12 (configuration not stated),340 nM
13,Cc1cccc(Cl)c1Nc1nc2cc(O)c(O)cc2n2cncc12,> 9000 nM
14,Cc1cccc(Cl)c1Nc1nc2cc(NCCCN(C)C)ccc2n2cncc12,480 nM
15,Cc1cccc(Cl)c1Nc1nc2ccc(N3CCN(C=O)CC3)cc2n2cncc12,530 nM
16,Cc1cccc(Cl)c1Nc1nc2ccc(N3CCNCC3)cc2n2cncc12,380 nM
17,Cc1cccc(Cl)c1Nc1nc2ccc(NCCN(C)C)cc2n2cncc12,880 nM
18,CC(=O)Nc1ccc2nc(Nc3c(C)cccc3Cl)c3cncn3c2c1,1400 nM
19,Cc1cccc(Cl)c1Nc1nc2ccc(N3CCCN(C)CC3)cc2n2cncc12,540 nM

row,Compound,IC50
1,Cc1cccc(Cl)c1Nc1nc2cc(NCCN(C)C)ccc2n2cncc12,520 nM
2,Brc1ccccc1Nc1nc2ccccc2n2cncc12,17000 nM
3,COc1ccc2c(c1)nc(Nc1c(C)cccc1Cl)c1cncn12,2600 nM
4,Cc1cccc(Cl)c1Nc1nc2ccc(N)cc2n2cncc12,1600 nM
5,Cc1cccc(Cl)c1Nc1nc2cc3c(cc2n2cncc12)OCO3,2000 nM
6,Cc1cccc(Cl)c1Nc1nc2ccc(N3CCOCC3)cc2n2cncc12,780 nM
7,COc1cc2c(cc1NCCN(C)C)nc(Nc1c(F)cccc1Cl)c1cncn12,240 nM
8,COc1cc2c(cc1NCCN1CCOCC1)nc(Nc1c(C)cccc1Cl)c1cncn12,280 nM
9,Cc1cccc(Cl)c1Nc1nc2cc(N3CC(C)NC(C)C3)ccc2n2cncc12 (configuration not stated),570 nM
10,COc1cc2nc(Nc3c(C)cccc3Cl)c3cncn3c2cc1N1CC(C)NC(C)C1 (configuration not stated),760 nM
11,Cc1cccc(Cl)c1Nc1nc2ccc(NCCCN3CCOCC3)cc2n2cncc12,760 nM
12,Cc1cccc(Cl)c1Nc1nc2ccc(N(C)C)cc2n2cncc12,2000 nM
13,Cc1cccc(Cl)c1Nc1nc2cc3c(cc2n2cncc12)OCCO3,2200 nM
14,Cc1cccc(Cl)c1Nc1nc2cc(N3CCOCC3)ccc2n2cncc12,1000 nM
15,CCN(CC)c1ccc2c(c1)nc(Nc1c(C)cccc1Cl)c1cncn12,1700 nM
16,COc1cc2nc(Nc3c(C)cccc3Cl)c3cncn3c2cc1OC,670 nM
17,COc1cc2nc(Nc3c(C)cccc3C)c3cncn3c2cc1OC,1100 nM
18,COc1ccc2nc(Nc3c(C)cccc3Cl)c3cncn3c2c1,1400 nM
